Molecules are shown by their SMILES. Values after ≈ are worked out from the molar mass of the structure shown. Active and inactive are the calls of the source.

One data set has as its target COP1-AGTL (Homo sapiens) (UniProt Q96AD5+Q8NHY2). The experiment in a line: Induction of COP1 to ATGL stabilization (unknown origin) expressed in HEK293-A cells assessed as reduction in ATGL ubiquitination incubated for 6 hrs by Western blotting analysis. The data set is classed as cell-based. (In general: Immunoblotting shows a protein as a band on a membrane.)
Data set [1] in a line: Stability in mouse plasma assessed as compound remaining after 2 hrs. It is filed as ADME, cell-free. The following applies: read-out: Stability.
A short description of data set [2]: Stability in human plasma assessed as compound remaining after 2 hrs. The data set is classed as ADME, cell-free. To be noted: read-out: Stability.
Data set [3] is described as follows: Metabolic stability in mouse liver microsomes assessed as hepatic blood flow. It is filed as ADME, Microsome. To be noted: read-out: QH.
A short description of data set [4]: Metabolic stability in mouse liver microsomes assessed as half life. It is filed as ADME, Microsome. (In general: Liver microsomes are a subcellular fraction often used to study metabolism.)
Data set [5] in a line: Aqueous solubility of compound at pH 7.4. The data set is classed as physicochemical.
Data set [6] is described as follows: Metabolic stability in mouse liver microsomes assessed as intrinsic clearance per mg of protein. The data set is classed as ADME, Microsome. The following applies: read-out: CLH.
The nature of data set [7]: Metabolic stability in human liver microsomes assessed as intrinsic clearance per mg of protein. The following applies: read-out: CLH. The data set is classed as ADME, Microsome.
Data set [8] is described as follows: Lipophilicity, logD of compound. It is filed as physicochemical. To be noted: octanol/water.
The nature of data set [9]: Metabolic stability in human liver microsomes assessed as half life. It is filed as ADME, Microsome.
Data set [10] can be described thus: Metabolic stability in human liver microsomes assessed as hepatic blood flow. The following applies: read-out: QH. It is filed as ADME, Microsome.
For a further data set, the system named is HepG2. The experiment in a line: Reduction in lipid droplets in human HepG2 cells by […] staining based confocal microscopic analysis. It is filed as functional, cell-based.
For a further data set, the system named is Hepatocyte. The experiment in a line: Upregulation of ATGL protein level in mouse primary hepatocytes incubated for 24 hrs by Western blotting analysis. It is filed as functional, cell-based. To be noted: dose 10-500 nM.

Chain of COP1-AGTL (Homo sapiens) (Q8NHY2 whole entry, looked up): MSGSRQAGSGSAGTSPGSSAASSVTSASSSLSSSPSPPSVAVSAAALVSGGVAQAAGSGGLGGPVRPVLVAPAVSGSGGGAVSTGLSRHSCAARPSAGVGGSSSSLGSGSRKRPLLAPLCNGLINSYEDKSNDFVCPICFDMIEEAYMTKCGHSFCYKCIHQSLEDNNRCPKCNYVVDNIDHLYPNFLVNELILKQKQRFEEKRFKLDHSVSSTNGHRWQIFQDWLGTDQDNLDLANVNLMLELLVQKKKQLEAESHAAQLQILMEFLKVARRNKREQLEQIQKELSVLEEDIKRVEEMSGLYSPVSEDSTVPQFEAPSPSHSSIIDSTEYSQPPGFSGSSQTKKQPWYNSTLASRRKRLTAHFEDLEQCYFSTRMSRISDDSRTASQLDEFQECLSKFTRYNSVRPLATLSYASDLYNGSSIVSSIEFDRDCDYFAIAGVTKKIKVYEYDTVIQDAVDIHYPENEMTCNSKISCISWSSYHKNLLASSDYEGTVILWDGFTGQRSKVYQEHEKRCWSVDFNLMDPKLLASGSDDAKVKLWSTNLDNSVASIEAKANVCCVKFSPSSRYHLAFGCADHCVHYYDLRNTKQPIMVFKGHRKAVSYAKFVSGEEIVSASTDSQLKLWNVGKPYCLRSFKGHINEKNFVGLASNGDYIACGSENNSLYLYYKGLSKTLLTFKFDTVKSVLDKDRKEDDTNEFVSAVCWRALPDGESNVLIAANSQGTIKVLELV
Chain of COP1-AGTL (Homo sapiens) (Q96AD5 whole entry, looked up): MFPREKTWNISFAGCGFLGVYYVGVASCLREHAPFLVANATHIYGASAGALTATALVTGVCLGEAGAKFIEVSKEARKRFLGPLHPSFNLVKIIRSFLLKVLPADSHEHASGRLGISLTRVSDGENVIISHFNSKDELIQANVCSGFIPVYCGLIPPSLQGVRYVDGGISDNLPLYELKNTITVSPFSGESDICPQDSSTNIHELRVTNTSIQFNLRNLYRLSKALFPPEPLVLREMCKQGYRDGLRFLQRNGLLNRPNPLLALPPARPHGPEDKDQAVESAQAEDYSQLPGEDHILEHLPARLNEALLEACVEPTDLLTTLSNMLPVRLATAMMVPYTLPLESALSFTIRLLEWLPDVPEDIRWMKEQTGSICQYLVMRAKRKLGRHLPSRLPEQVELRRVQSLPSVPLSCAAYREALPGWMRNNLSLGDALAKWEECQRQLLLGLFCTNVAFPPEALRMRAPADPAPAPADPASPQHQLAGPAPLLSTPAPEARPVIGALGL

For the compound `COCCn1cnc2ccc(NC(=O)Nc3cccc(C(C)=O)c3)c(-c3ccccc3)c2c1=O`, the result on COP1-AGTL (Homo sapiens) was Active.
For `CC(C)[N+](C)(CCOC(=O)C1c2ccccc2Oc2ccccc21)C(C)C` [PROPANTHELINE], the remaining at 2 h in [1] came to 0%.
On to `COCCn1cnc2ccc(NC(=O)Nc3cccc(C(C)=O)c3)c(C3CCNCC3)c2c1=O`, for which the result on COP1-AGTL (Homo sapiens) was inactive.
Usually half-life stands for the time needed for the level to fall by half in the phase considered. Broadly, the solubility is the concentration that dissolves in the medium under given conditions. Higher therefore signals a readily soluble substance. As usually defined, the logD is the decadic logarithm of the distribution of all forms, ionised or not, between an organic phase and buffer at a given pH. A higher logD goes with higher lipophilicity. For `COCCn1c(=O)[nH]c2ccc(NC(=O)Nc3cccc(C(C)=O)c3)cc2c1=O`, the remaining at 2 h in data set [2] was determined as 97.4%; in data set [1], 68.4%. Further, the hepatic extraction ratio in [3] is 0.228; in data set [10], 0.076. Further, the half-life in data set [4] worked out at 1.25 h; in [9] it was 7.16 h. Also, the result on COP1-AGTL (Homo sapiens) was Active. The same compound displayed a solubility in [5] of 0.8 µg/mL (≈ 2.02 µM). The microsomal CLint is 11.4 µL/min/mg in [6] and 1.8 µL/min/mg in data set [7]. For the same compound, in data set [8], the logD stood at 2.17.
Turning to `COCCn1cnc2ccc(NC(=O)Nc3cccc(C(C)=O)c3)c(C3=CCNCC3)c2c1=O`, the outcome at COP1-AGTL (Homo sapiens) was inactive.
With `CC(=O)c1cccc(NC(=O)Nc2ccc3ncn(CCN4CCOCC4)c(=O)c3c2)c1`, the outcome at COP1-AGTL (Homo sapiens) was inactive.
On to `COCCn1cnc2ccc(NC(=O)Nc3cccc(C(C)=O)c3)c(-c3ccc(F)cc3)c2c1=O`, for which the remaining at 2 h in [2] turned out to be 44.9%. Further, the hepatic extraction ratio in data set [3] was 0.925. The half-life in [4] is 0.025 h. The outcome on COP1-AGTL (Homo sapiens) was inactive. Also, in data set [5], the solubility came out at 31.9 µg/mL (≈ 67.2 µM). Further, the microsomal CLint in data set [6] turned out to be 456 µL/min/mg. The compound further registered a logD in data set [8] of 1.9.
In the case of `COCCn1cnc2ccc(NC(=O)Nc3cccc(C(C)=O)c3)c(-c3ccc(OC)cc3)c2c1=O`, the result at COP1-AGTL (Homo sapiens) was inactive.
On to `COCCn1cnc2ccc(NC(=O)N3CCCCC3)cc2c1=O`, for which the outcome on COP1-AGTL (Homo sapiens) was inactive.
The same measure, in the same setting: with `COCCn1cnc2ccc(NC(=O)Nc3ccc(OC)cc3)cc2c1=O` the entry was “Active”; with `COCCn1cnc2ccc(NC(=O)Nc3cccc(C(F)(F)F)c3)cc2c1=O`, “inactive”; with `COCCn1cnc2ccc(NC(=O)Nc3ccccc3C(F)(F)F)cc2c1=O`, “inactive”.
For `COCCn1cnc2ccc(NC(=O)Nc3cccc(C(=O)C(F)(F)F)c3)cc2c1=O`, the remaining at 2 h in data set [2] was determined as 62%; in data set [1], 52.6%. Besides, the hepatic extraction ratio came to 0.183 in data set [3] and 0.262 in data set [10]. Further, the results for the half-life in data set [4] and in [9] were 1.41 h and 1.5 h, respectively. Moreover, the outcome on COP1-AGTL (Homo sapiens) was inactive. Besides, the concentration in solution in [5] (solubility) came to 9.6 µg/mL (≈ 22.1 µM). The microsomal CLint in data set [6] was 8.2 µL/min/mg; in data set [7] it was 7.7 µL/min/mg. The compound further returned a logD in data set [8] of 4.25.
Take `COCCn1cnc2ccc(NC(=O)Nc3cccc(C(C)O)c3)cc2c1=O` (stereo unspecified): on COP1-AGTL (Homo sapiens), the result was inactive.
`CCn1cnc2ccc(NC(=O)Nc3cccc(C(C)=O)c3)cc2c1=O`: the outcome at COP1-AGTL (Homo sapiens) was inactive.
Consider `CCCCn1cnc2ccc(NC(=O)Nc3cccc(C(C)=O)c3)cc2c1=O`, for which the outcome on COP1-AGTL (Homo sapiens) was inactive.
For the compound `COCCn1cnc2ccc(NC(=O)Nc3cccc(C(C)=O)c3)c(-c3ccc(OC)nc3)c2c1=O`, the result at COP1-AGTL (Homo sapiens) was inactive.
For `COCCn1cnc2ccc(NC(=O)Nc3ccc(C(F)(F)F)cc3)cc2c1=O`, the outcome on COP1-AGTL (Homo sapiens) was inactive.
The same measure, in the same setting: with `COCCn1cnc2ccc(NC(=O)Nc3ccccc3OC)cc2c1=O` the entry was “inactive”.
Take `COCCn1cnc2ccc(NC(=O)Nc3cccc(C(C)=O)c3)c(Br)c2c1=O`: in data set [2], the remaining at 2 h was 10.3%. Also, the hepatic extraction ratio in data set [3] stood at 0.167. For the same compound, the half-life in data set [4] was 1.78 h. In addition, the result at COP1-AGTL (Homo sapiens) was Active. Moreover, the concentration in solution in data set [5] (solubility) was 3.4 µg/mL (≈ 7.4 µM). Besides, the microsomal CLint in data set [6] is 7.5 µL/min/mg. The compound also gave a logD in [8] of 1.95.
For the compound `CC(=O)c1cccc(NC(=O)Nc2ccc3ncn(CCN4CCCCC4)c(=O)c3c2)c1`, at COP1-AGTL (Homo sapiens), the result was inactive.
On to `COCCn1c(=O)c2cc(NC(=O)Nc3cccc(C(C)=O)c3)ccc2n(CCN2CCCC2)c1=O`, for which the remaining at 2 h in data set [2] was determined as 32.8%; in data set [1] it was 50.3%. In addition, the hepatic extraction ratio in [3] was 0.26; in data set [10], 0.175. The half-life came out at 0.895 h in data set [4] and 2.56 h in data set [9]. The result on COP1-AGTL (Homo sapiens) was Active. The concentration in solution in data set [5] (solubility) was 124 µg/mL (≈ 252 µM). In addition, the results for the microsomal CLint in [6] and in data set [7] were 13 µL/min/mg and 4.6 µL/min/mg, respectively. The compound further showed a logD in data set [8] of 2.58.
As to `COCCn1cnc2ccc(NC(=O)Nc3ccc(F)cc3)cc2c1=O`, at COP1-AGTL (Homo sapiens), the result was inactive.
Turning to `COCCn1cnc2ccc(NC(=O)Nc3cccc(C(=O)c4ccccc4)c3)cc2c1=O`, the result on COP1-AGTL (Homo sapiens) was inactive.
Same read-out and setting: under `CC(=O)c1cccc(NC(=O)Nc2ccc3nc[nH]c(=O)c3c2)c1` stands “inactive”; under `COCCn1cnc2ccc(NC(=O)NC3CCN(C)CC3)cc2c1=O`, “inactive”.
Same read-out and setting: with `COCCCn1cnc2ccc(NC(=O)Nc3cccc(C(C)=O)c3)cc2c1=O` the entry was “Active”; with `COCCn1c(=O)c2cc(NC(=O)Nc3cccc(C(C)=O)c3)ccc2n(C)c1=O`, “Active”.
In the case of `COCCn1c(=O)c2cc(NC(=O)Nc3cccc(C(C)=O)c3)ccc2n(C(C)C)c1=O`, the figures for the remaining at 2 h in data set [2] and in data set [1] were 80.8% and 90.7%, respectively. Besides, the hepatic extraction ratio in data set [3] was determined as 0.536; in [10] it was 0.403. The half-life in data set [4] amounted to 0.272 h; in [9] it was 0.793 h. Moreover, the result on COP1-AGTL (Homo sapiens) was inactive. Besides, the solubility in data set [5] was 2.8 µg/mL (≈ 6.39 µM). Moreover, the values for the microsomal CLint in [6] and in [7] were 42.6 µL/min/mg and 14.6 µL/min/mg, respectively. This compound also came in with a logD in [8] of 2.67.
Take `COCCn1cnc2ccc(NC(=O)Nc3ccccc3)cc2c1=O`: at COP1-AGTL (Homo sapiens), the result was inactive.
Still for that read-out and setting: under `CCc1cccc(NC(=O)Nc2ccc3ncn(CCOC)c(=O)c3c2)c1` stands “inactive”; under `COCCn1cnc2ccc(NC(=O)N(C)C)cc2c1=O`, “inactive”.
As for `COCCn1cnc2ccc(NC(=O)Nc3cccc(C(O)C(F)(F)F)c3)cc2c1=O` (stereo unspecified), the remaining at 2 h turned out to be 74.6% in [2] and 118% in data set [1]. For the same compound, the values for the hepatic extraction ratio in [3] and in data set [10] were 0.462 and 0.415, respectively. Moreover, the half-life is 0.367 h in data set [4] and 0.753 h in data set [9]. Further, the result at COP1-AGTL (Homo sapiens) was inactive. Also, the solubility in data set [5] turned out to be 27 µg/mL (≈ 61.9 µM). Moreover, the microsomal CLint in data set [6] worked out at 31.7 µL/min/mg; in [7], 15.3 µL/min/mg. Besides, the logD in data set [8] came to 2.54.
Take `COCCn1cnc2ccc(NC(=O)Nc3cccc(C(C)=O)c3)c(-c3ccc(C(F)(F)F)cc3)c2c1=O`: the outcome on COP1-AGTL (Homo sapiens) was inactive.
Still for that read-out and setting: with `CC(=O)c1cccc(NC(=O)Nc2ccc3ncn(CCCN4CCOCC4)c(=O)c3c2)c1` the entry was “inactive”.
Consider `COCCn1cnc2ccc(NC(=O)Nc3cccc(OC)c3)cc2c1=O`, for which the remaining at 2 h in data set [2] is 73.9%; in data set [1], 84.5%. Besides, the result in the data set on HepG2 and on COP1-AGTL (Homo sapiens) was Active. Moreover, the hepatic extraction ratio was found to be 0.231 in [3] and 0.184 in [10]. In addition, the half-life in [4] worked out at 1.05 h; in [9] it was 2.4 h. Also, in data set [5], the solubility amounted to 21.5 µg/mL (≈ 58.4 µM). The Activity entry with Hepatocyte is “Dose-Dependent Effect”. Besides, the microsomal CLint worked out at 11 µL/min/mg in data set [6] and 4.9 µL/min/mg in data set [7]. In [8], the logD amounted to 3.02.
As to `CC(=O)c1cccc(NC(=O)Nc2ccc3ncn(CCN(C)C)c(=O)c3c2)c1`, the outcome at COP1-AGTL (Homo sapiens) was inactive.

Source of the values: ChEMBL document CHEMBL5376004, “Discovery and Development of Quinazolinones and Quinazolinediones for Ameliorating Nonalcoholic Fatty Liver Disease (NAFLD) by Modulating COP1-ATGL Axis” (J Med Chem, 2023).
